Measurements published in PMC12412326, “Cloning and Functional Characterization of a Novel Brevinin-1-Type Peptide from Sylvirana guentheri with Anticancer Activity” (Current Issues in Molecular Biology, 2025).
Where two headings read alike, the source gives them in different places. Ends that are not written are not given here. Peptide text beside a SMILES is read from it.

Legend:
[1] = system: A549 (lung) cells; type: cell-based, human; conditions: 72 h
Experimental: (§1) The cytotoxic effects of brevinin-1 E8.13 were evaluated in six human cancer cell lines: A549 (lung), AGS (stomach), Jurkat (blood), HCT116 (colon), HL60 (blood), and HepG2 (liver). All cell lines were cultured in either DMEM or RPMI-1640 medium supplemented with 10% fetal bovine serum (FBS) and 1% penicillin–streptomycin, under conditions of 5% CO2 at 37 °C. The 3-(4,5-dimethylthiazol-2-yl)-2,5-diphenyltetrazolium bromide (MTT) assay was used to assess cell viability. Cells were seeded at a density of 10^4 cells per well in 96-well plates and incubated at 37 °C. After 72 h of treatment with the peptide, 10 µL of MTT reagent (Merck, Darmstadt, Germany) in PBS, pH 7.0 was added to each well and incubated for 4 h. Following supernatant removal, 100 µL of dimethyl sulfoxide (DMSO, Merck, Germany) was added to dissolve the resulting formazan crystals. Absorbance was measured at 570 nm using a microplate reader. Each experimental condition was performed in triplicate. The cytotoxicity of the peptide was also evaluated in normal human dermal fibroblast cells using the same assay.

[2] = system: Jurkat (blood) cells; type: cell-based, human; conditions: 72 h
Experimental: as §1

[3] = system: HL60 (blood) cells; type: cell-based, human; conditions: 72 h
Experimental: as §1

[4] = system: AGS (stomach) cells; type: cell-based, human; conditions: 72 h
Experimental: as §1

[5] = system: HepG2 (liver) cells; type: cell-based, human; conditions: 72 h
Experimental: as §1

[6] = system: HCT116 (colon) cells; type: cell-based, human; conditions: 72 h
Experimental: as §1

[7] = system: human cancer cell lines (A549, AGS, Jurkat, HCT116, HL60, HepG2); type: cell-based
Experimental: as §1

[8] = system: Pseudomonas aeruginosa; experiment: Antibacterial activity (MIC, broth dilution in 96-well plates); type: cell-based; conditions: LB broth, 10^6 CFU/mL, 24 h at 37 °C, OD 600 nm, triplicate
Experimental: (§2) The antibacterial activity of brevinin-1 E8.13 was evaluated against six bacterial strains, including two Gram-positive species (Staphylococcus aureus and Bacillus subtilis) and four Gram-negative species (Escherichia coli, Acinetobacter baumannii, Klebsiella pneumoniae, and Pseudomonas aeruginosa). All strains were isolated and identified by the Department of Microbiology, Thanh Nhan Hospital (Hanoi, Vietnam), and are currently maintained at the Laboratory of Cell Biotechnology and Bioassay, Institute of Biology, Vietnam Academy of Science and Technology (VAST).
(§3) Each bacterial strain was first cultured overnight in Luria–Bertani (LB) broth. Then, 100 μL of the overnight culture was transferred to 5 mL of fresh LB broth and incubated at 37 °C with shaking until reaching the logarithmic growth phase. Cultures were adjusted to a concentration of 10^6 colony-forming units (CFU)/mL and dispensed into 96-well plates. The peptide was added at final concentrations ranging from 24.8 μM to 0.4 μM. After 24 h of incubation at 37 °C, bacterial growth was quantified by measuring optical density (OD) at 600 nm using a Synergy HT microplate reader (BioTek, Winooski, VT, USA). All concentrations were tested in triplicate.

[9] = system: Klebsiella pneumoniae; experiment: as above; type: cell-based; conditions: LB broth, 10^6 CFU/mL, 24 h at 37 °C, OD 600 nm, triplicate
Experimental: as §2, §3

[10] = system: Acinetobacter baumannii; experiment: as above; type: cell-based; conditions: LB broth, 10^6 CFU/mL, 24 h at 37 °C, OD 600 nm, triplicate
Experimental: as §2, §3

[11] = system: Escherichia coli; type: cell-based
Experimental: as §2, §3

[12] = system: Bacillus subtilis; type: cell-based
Experimental: as §2, §3

[13] = system: Staphylococcus aureus; type: cell-based; conditions: for MIC S. aureus: 24 h
Experimental: as §2, §3

[14] = Circular dichroism, secondary structure estimated with CDNN 2.1; type: physicochemical; conditions: 0.3 mg/mL in deionized water, CDNN 2.1, 190–260 nm range
Experimental: The CD spectrum of the peptide brevinin-1 E8.13 was measured to evaluate its secondary structure. The peptide was dissolved in deionized water at a concentration of 0.3 mg/mL. Measurements were performed using a ChiraScan™ Circular Dichroism Spectrometer (Applied Photophysics, Leatherhead, Surrey, UK) with a quartz cuvette of 1 mm path length. The CD spectra were recorded over a wavelength range of 180–260 nm using the default instrument settings recommended by the manufacturer (scanning speed, integration time, and bandwidth). Each sample was measured three consecutive times, and the solvent-corrected average spectrum was used for analysis. The resulting spectra were processed using the CDNN 2.1 (Circular Dichroism Neural Network) software to estimate the proportions of secondary structural elements, including α-helix, β-sheet, β-turn, and random coil.

[15] = LB broth, 10^6 CFU/mL, 24 h at 37 °C, OD 600 nm, triplicate

CC[C@H](C)[C@H](NC(=O)[C@H](C)NC(=O)[C@H](C)NC(=O)[C@@H]1CCCN1C(=O)[C@@H](NC(=O)[C@H](CC(C)C)NC(=O)[C@H](CCCCN)NC(=O)[C@H](CO)NC(=O)[C@H](C)NC(=O)[C@@H](NC(=O)[C@H](CCCCN)NC(=O)[C@H](Cc1ccccc1)NC(=O)[C@H](CC(C)C)NC(=O)[C@H](C)NC(=O)CNC(=O)[C@H](CC(C)C)NC(=O)[C@@H](N)Cc1ccccc1)C(C)C)C(C)C)C(=O)N[C@@H](CS)C(=O)N[C@@H](CO)C(=O)N[C@@H](Cc1ccccc1)C(=O)N[C@@H](CO)C(=O)N[C@@H](CCCCN)C(=O)N[C@@H](CCCCN)C(=O)N[C@@H](CS)C(N)=O [Brevinin-1 E8.13] (H-FLGALFKVASKLVPAAICSFSKKC-NH2; N-terminus assumed)
IC50 [1]: 31.6 µM
IC50 [2]: 12.9 µM
IC50 [3]: 14.8 µM
IC50 [4]: 7.5 µM
IC50 [5]: 11.7 µM
IC50 [6]: 9.2 µM
IC50 ([7]; 72 h): 7.5 to 14.8 µM
Selectivity Index (SI) toward cancer cells ([7]; SI = IC50 (HDF) or HC50 / IC50 (cancer cells), result in words): moderate selectivity
MIC P. aeruginosa [8]: > 24.8 µM
MIC K. pneumonia [9]: > 24.8 µM
MIC A. baumanii [10]: > 24.8 µM
MIC E. coli [11, 15]: > 24.8 µM
MIC B. subtilis [12, 15]: > 24.8 µM
MIC S. aureus [13]: 1.5 µM
Selectivity Index (SI) toward Staphylococcus aureus over normal cells ([13]; SI = IC50 (HDF) or HC50 / MIC, result in words): high selectivity (SI > 10 reflects high selectivity)
Antiparallel β-sheet content (CD) [14]: 36.2%
Random coil content (CD) [14]: 27.74%
α-helix content (CD) [14]: 11.83%
β-turn content (CD) [14]: 15.48%

FAKWAFKWLKK-NH2 [GA-K4AL, reference compound]
MIC E. coli ([11]; 24 h): 10.1 µM
MIC B. subtilis ([12]; 24 h): >41.8 µM
MIC S. aureus [13]: 2.5 µM
